Read-outs that look alike come from different tables or passages of the source.
What was measured:
[1] = tested on: Key Broadleaf Weed and Crop Species; experiment: Post-emergent Test II herbicidal activity (Table 5); assay type: in vivo; details: post-emergence, 336 h, 14 days after application; for pest or weed control at 70 g/ha: application rate 70 g ai/ha; for pest or weed control at 140 g/ha: application rate 140 g ai/ha
Outline: (§1)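 Scoring: visual, 0–100% injury at 14 d versus untreated. Treatment: overhead track spray, 187 L/ha, onto plants at the first–second true leaf stage. Growth: greenhouse, ~15 h light, 23–29 °C day, 22–28 °C night.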

[2] = tested on: Key Grass and Sedge Weeds as well as Grass Crops; experiment: Post-emergent Test II herbicidal activity (Table 6); assay type: in vivo; details: post-emergence, 336 h; for pest or weed control at 70 g/ha: 70 g ai/ha; for pest or weed control at 140 g/ha: 140 g ai/ha
Outline: as §1

[3] = ABUTH: velvetleaf (Abutilon theophrasti), read-out: Visual Growth Reduction (%) 14 Days After Application, ABUTH
[4] = AMARE: redroot pigweed (Amaranthus retroflexus), read-out: Visual Growth Reduction (%) 14 Days After Application, AMARE
[5] = BRSNN: oilseed-rape, canola (Brassica napus), read-out: Visual Growth Reduction (%) 14 Days After Application, BRSNN
[6] = CHEAL: lambsquarters (Chenopodium album), read-out: Visual Growth Reduction (%) 14 Days After Application, CHEAL
[7] = EPHHL: wild poinsettia (Euphorbia heterophylla), read-out: Visual Growth Reduction (%) 14 Days After Application, EPHHL
[8] = HELAN: sunflower (Helianthus annuus), read-out: Visual Growth Reduction (%) 14 Days After Application, HELAN
[9] = VIOTR: wild pansy (Viola tricolor), read-out: Visual Growth Reduction (%) 14 Days After Application, VIOTR
[10] = CYPES: yellow nutsedge (Cyperus esculentus), read-out: Visual Growth Reduction (%) 14 Days After Application, CYPES
[11] = DIGSA: crabgrass (Digitaria sanguinalis), read-out: Visual Growth Reduction (%) 14 Days After Application, DIGSA
[12] = ECHCG: barnyardgrass (Echinochloa crus-galli), read-out: Visual Growth Reduction (%) 14 Days After Application, ECHCG
[13] = ORYSA: rice (Oryza sativa), crop, read-out: Visual Growth Reduction (%) 14 Days After Application, ORYSA
[14] = SETFA: giant foxtail (Setaria faberi), read-out: Visual Growth Reduction (%) 14 Days After Application, SETFA
[15] = SORVU: grain sorghum (Sorghum vulgare), read-out: Visual Growth Reduction (%) 14 Days After Application, SORVU
[16] = TRZSS (wheat, Triticum aestivum), crop, read-out: Visual Growth Reduction (%) 14 Days After Application, TRZSS
[17] = ZEAMX: maize, corn (Zea mays), crop, read-out: Visual Growth Reduction (%) 14 Days After Application, ZEAMX

## COC(=O)c1nc(-c2ccc(Cl)c(F)c2)c(F)c(N)c1Cl [Compound 216]
other
  melting point: 111 to 114 °C
[1]; [3]
  pest or weed control at 70 g/ha: 95 to 100%
  pest or weed control at 140 g/ha: 95 to 100%
[1]; [4]
  pest or weed control at 70 g/ha: 95 to 100%
  pest or weed control at 140 g/ha: 95 to 100%
[1]; [5]
  pest or weed control at 70 g/ha: 75 to 84%
  pest or weed control at 140 g/ha: 85 to 94%
[1]; [6]
  pest or weed control at 70 g/ha: 95 to 100%
  pest or weed control at 140 g/ha: 95 to 100%
[1]; [7]
  pest or weed control at 70 g/ha: 95 to 100%
  pest or weed control at 140 g/ha: 95 to 100%
[1]; [8]
  pest or weed control at 70 g/ha: 95 to 100%
  pest or weed control at 140 g/ha: 95 to 100%
[1]; [9]
  pest or weed control at 70 g/ha: 85 to 94%
  pest or weed control at 140 g/ha: 95 to 100%
[2]; [10]
  pest or weed control at 70 g/ha: 85 to 94%
  pest or weed control at 140 g/ha: 95 to 100%
[2]; [11]
  pest or weed control at 70 g/ha: 30 to 44%
  pest or weed control at 140 g/ha: 75 to 84%
[2]; [12]
  pest or weed control at 70 g/ha: 95 to 100%
  pest or weed control at 140 g/ha: 95 to 100%
[2]; [13]
  pest or weed control at 70 g/ha: 0 to 29%
  pest or weed control at 140 g/ha: 0 to 29%
[2]; [14]
  pest or weed control at 70 g/ha: 30 to 44%
  pest or weed control at 140 g/ha: 45 to 59%
[2]; [15]
  pest or weed control at 70 g/ha: 85 to 94%
  pest or weed control at 140 g/ha: 85 to 94%
[2]; [16]
  pest or weed control at 70 g/ha: 0 to 29%
  pest or weed control at 140 g/ha: 30 to 44%
[2]; [17]
  pest or weed control at 70 g/ha: 85 to 94%
  pest or weed control at 140 g/ha: 85 to 94%

Reference: patent US9113629B2, “4-amino-6-(4-substituted-phenyl)-picolinates and 6-amino-2-(4-substituted-phenyl)-pyrimidine-4-carboxylates and their use as herbicides” (DOW AGROSCIENCES LLC, priority 2013, dated 2015)
